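Values below derive from 48-hour exposures of cells grown in 96-well plates, with endpoints linearly interpolated between the two concentrations bracketing the appropriate inhibition level. GI50 is the concentration that inhibits growth by half.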 Calls of active or inactive are those of the source. No stated cut-off is given here; in the data, active = GI50 up to about 1.1 µM and inactive = higher.
How the values were obtained:
Experiment in all cases: NCI anticancer screen, dose series, 48 h
HL-60 = tested on: HL-60
SK-OV-3 = tested on: SK-OV-3
SF-539 = tested on: SF-539
HCC 2998 = tested on: HCC 2998
KM12 = tested on: KM12
EKVX = tested on: EKVX
HOP-92 = tested on: HOP-92
OVCAR-5 = tested on: OVCAR-5
UACC-257 = tested on: UACC-257
NCI-H226 = tested on: NCI-H226
A549 = tested on: A549
TK-10 = tested on: TK-10
ACHN = tested on: ACHN
UACC-62 = tested on: UACC-62
OVCAR-4 = tested on: OVCAR-4
A498 = tested on: A498

Measured: GI50

CCOC(=O)/C(Br)=C1/OC(=O)c2ccccc2-c2ccccc21.CCOC(=O)/C(Br)=C1\OC(=O)c2ccccc2-c2ccccc21
inactive: HL-60 8.3 µM | SK-OV-3 36.2 µM | SF-539 21.5 µM | HCC 2998 21 µM | KM12 14.8 µM | EKVX 31.7 µM | HOP-92 11.8 µM | OVCAR-5 20 µM | UACC-257 18.2 µM | NCI-H226 27.3 µM | A549 26.3 µM | TK-10 21.6 µM | ACHN 15.7 µM | UACC-62 15.4 µM

CC(C)/C=C1\CCC(CN2CCOCC2)C1=O (centres undefined)
inactive: HL-60 2.13 µM | OVCAR-4 20.8 µM | SK-OV-3 > 100 µM | SF-539 15.5 µM | HCC 2998 20.2 µM | KM12 10.5 µM | A498 > 35.9 µM | EKVX 19.1 µM | HOP-92 18.4 µM | OVCAR-5 22.5 µM | UACC-257 7.78 µM | NCI-H226 30.5 µM | A549 26.3 µM | TK-10 12.9 µM | ACHN 18 µM | UACC-62 18 µM

COc1ccc(/C=C2\CN(C)Cc3c2nc(N)nc3-c2ccc(OC)cc2)cc1
inactive: HL-60 28.7 µM | SK-OV-3 > 100 µM | SF-539 > 100 µM | HCC 2998 16.6 µM | KM12 61.2 µM | A498 > 100 µM | EKVX 33.6 µM | OVCAR-5 > 100 µM | NCI-H226 > 100 µM | A549 48.4 µM | TK-10 > 100 µM | ACHN > 100 µM | UACC-62 87.1 µM

CCCCCCCCCCCCCC(=S)N/C=C/OC
inactive: HL-60 16.1 µM | OVCAR-4 32.1 µM | SK-OV-3 > 100 µM | SF-539 66.5 µM | HCC 2998 19 µM | KM12 28.2 µM | A498 23.2 µM | EKVX 31 µM | HOP-92 25.8 µM | OVCAR-5 > 100 µM | UACC-257 24.5 µM | NCI-H226 43.8 µM | A549 37.4 µM | TK-10 > 100 µM | ACHN 27.5 µM | UACC-62 20.7 µM

NC1N=Nc2ccccc21 (centres undefined)
inactive: HL-60 > 100 µM | OVCAR-4 > 100 µM | SK-OV-3 > 100 µM | SF-539 > 100 µM | HCC 2998 > 100 µM | KM12 > 100 µM | EKVX > 100 µM | HOP-92 > 100 µM | OVCAR-5 > 100 µM | UACC-257 > 100 µM | NCI-H226 > 100 µM | A549 > 100 µM | TK-10 > 100 µM | ACHN > 100 µM

COC1OC(C)C(OC(=O)C(C)(C)C)C(OS(=O)(=O)c2ccc(C)cc2)C1OS(=O)(=O)c1ccc(C)cc1 (centres undefined)
inactive: HL-60 > 100 µM | OVCAR-4 > 100 µM | SK-OV-3 > 100 µM | SF-539 > 100 µM | HCC 2998 > 100 µM | KM12 > 100 µM | OVCAR-5 > 100 µM | UACC-257 > 100 µM | NCI-H226 > 100 µM | A549 > 100 µM | ACHN > 100 µM

CCCCNC(=NC#N)NCCCC
inactive: OVCAR-4 > 100 µM | SK-OV-3 > 100 µM | SF-539 > 100 µM | HCC 2998 > 100 µM | KM12 > 100 µM | A498 > 100 µM | EKVX > 100 µM | HOP-92 > 100 µM | OVCAR-5 > 100 µM | UACC-257 > 100 µM | NCI-H226 > 100 µM | A549 > 100 µM | TK-10 > 100 µM | ACHN > 100 µM | UACC-62 > 100 µM

O=S(=O)(c1ccccc1)C1CN2OC1(S(=O)(=O)c1ccccc1)CC2c1ccc(Br)cc1 (centres undefined)
inactive: HL-60 > 100 µM | OVCAR-4 15.4 µM | SK-OV-3 > 100 µM | SF-539 17.7 µM | HCC 2998 > 100 µM | KM12 > 100 µM | A498 96.4 µM | EKVX > 100 µM | HOP-92 66.2 µM | OVCAR-5 > 100 µM | UACC-257 68.4 µM | NCI-H226 > 100 µM | A549 > 100 µM | TK-10 59 µM | ACHN 45.4 µM | UACC-62 > 100 µM

COc1ccc2c(c1OC)C(=O)C2
inactive: HL-60 > 100 µM | OVCAR-4 > 100 µM | SK-OV-3 > 100 µM | KM12 > 100 µM | EKVX > 100 µM | UACC-257 > 100 µM | NCI-H226 > 100 µM | A549 > 100 µM | TK-10 > 100 µM | ACHN > 100 µM | UACC-62 > 100 µM

N#CCCN(c1ccc(/C=N/c2ccccc2)cc1)S(=O)(=O)c1ccccc1
inactive: HL-60 31.1 µM | OVCAR-4 > 100 µM | SK-OV-3 > 100 µM | SF-539 > 100 µM | HCC 2998 5.22 µM | KM12 16.5 µM | A498 > 100 µM | EKVX 35.7 µM | HOP-92 > 100 µM | UACC-257 > 100 µM | NCI-H226 > 100 µM | A549 > 100 µM | TK-10 > 100 µM | UACC-62 3.27 µM

CC(=O)N/N=C1\CC(C)(C)C2CCC1C2 (centres undefined)
inactive: HL-60 > 100 µM | OVCAR-4 > 100 µM | SK-OV-3 > 100 µM | SF-539 > 100 µM | KM12 > 100 µM | A498 > 100 µM | EKVX > 100 µM | HOP-92 > 100 µM | OVCAR-5 > 100 µM | UACC-257 > 100 µM | A549 > 100 µM | TK-10 > 100 µM | ACHN > 100 µM | UACC-62 > 100 µM

COC1(C)CC2N(C(=O)c3ccccc3)N=C(c3ccccc3)CC2(C)O1 (centres undefined)
inactive: HL-60 > 100 µM | OVCAR-4 > 100 µM | SK-OV-3 > 100 µM | SF-539 > 100 µM | HCC 2998 96.4 µM | KM12 > 100 µM | A498 > 100 µM | HOP-92 > 100 µM | OVCAR-5 > 100 µM | UACC-257 > 100 µM | NCI-H226 > 100 µM | A549 > 100 µM | ACHN > 100 µM | UACC-62 43.3 µM

CC(=O)OC1COC(N2C(=O)C(=O)c3c(C)cc(Cl)nc32)C(OC(C)=O)C1OC(C)=O (centres undefined)
inactive: HL-60 > 100 µM | OVCAR-4 > 100 µM | SF-539 > 100 µM | KM12 > 100 µM | A498 > 100 µM | EKVX > 100 µM | HOP-92 > 100 µM | OVCAR-5 > 100 µM | UACC-257 > 100 µM | NCI-H226 > 100 µM | A549 > 100 µM | TK-10 > 100 µM | ACHN > 100 µM | UACC-62 > 100 µM

Cc1nn(-c2nc3ccccc3s2)c2c1C(=O)c1ccccc1-2
inactive: HL-60 > 100 µM | OVCAR-4 26.9 µM | SK-OV-3 > 100 µM | SF-539 > 100 µM | HCC 2998 > 100 µM | KM12 > 100 µM | A498 > 100 µM | EKVX > 100 µM | HOP-92 89.3 µM | OVCAR-5 > 100 µM | UACC-257 > 100 µM | A549 > 100 µM | TK-10 > 100 µM | ACHN > 100 µM | UACC-62 > 100 µM

C[Si](C)(C)c1ccc(CC2(Cc3ccc([Si](C)(C)C)cc3)CCNC2)cc1
inactive: HL-60 7.18 µM | OVCAR-4 2.1 µM | SK-OV-3 1.63 µM | SF-539 3.34 µM | HCC 2998 2.11 µM | KM12 1.99 µM | A498 1.55 µM | EKVX 6.75 µM | HOP-92 1.74 µM | OVCAR-5 4.67 µM | UACC-257 2.44 µM | NCI-H226 1.88 µM | A549 2.29 µM | TK-10 21 µM | ACHN 3.18 µM | UACC-62 2.02 µM

O=C(/C=N/c1ccccc1[S-])c1ccco1.O=C(/C=N/c1ccccc1[S-])c1ccco1.[Zn+2]
inactive: HL-60 3.56 µM | SK-OV-3 27.9 µM | SF-539 13.3 µM | HCC 2998 10 µM | KM12 12.8 µM | A498 21.5 µM | HOP-92 11.5 µM | OVCAR-5 16.8 µM | UACC-257 12.5 µM | A549 3.98 µM | TK-10 16.7 µM | ACHN 5.46 µM | UACC-62 15.6 µM

COc1ccc(C2Oc3ccc(O)cc3[C@@H]2C)cc1OC (some centres undefined)
inactive: HL-60 34.3 µM | OVCAR-4 97.7 µM | SK-OV-3 > 100 µM | SF-539 > 100 µM | HCC 2998 > 100 µM | KM12 > 100 µM | EKVX > 100 µM | HOP-92 23 µM | OVCAR-5 > 100 µM | UACC-257 > 100 µM | NCI-H226 > 100 µM | A549 > 100 µM | TK-10 > 100 µM | ACHN > 100 µM | UACC-62 > 100 µM

NC(=O)N1N=C2c3ccccc3CC[C@@H]2C1c1ccccc1 (some centres undefined)
inactive: HL-60 42.9 µM | SK-OV-3 > 100 µM | SF-539 > 100 µM | HCC 2998 > 100 µM | KM12 > 100 µM | A498 > 100 µM | EKVX > 100 µM | OVCAR-5 > 100 µM | UACC-257 > 100 µM | NCI-H226 > 100 µM | A549 > 100 µM | TK-10 > 100 µM | ACHN > 100 µM | UACC-62 > 100 µM

COc1ccc(/C=C/c2cc(OC)c(O[Si](C)(C)C(C)(C)C)c(OC)c2)cc1
inactive: OVCAR-4 49.9 µM | SK-OV-3 > 100 µM | SF-539 > 100 µM | HCC 2998 > 100 µM | KM12 > 100 µM | A498 > 100 µM | EKVX > 100 µM | HOP-92 29.9 µM | OVCAR-5 64.9 µM | UACC-257 28.4 µM | NCI-H226 30.3 µM | A549 > 100 µM | ACHN > 100 µM | UACC-62 75.2 µM
